Structures are written as SMILES. Toxic doses and inconclusive results are not listed.

This assay deals with BDF1 mice, Lewis lung carcinoma iv, survival T/C. As to the kind of experiment: NCI In Vivo Anticancer Drug Screen. Data for tumor model Lewis Lung Carcinoma (intravenous) in B6D2F1 (BDF1) mice. The settings on record: endpoint: median survival time, higher = longer survival. How it is done: The antitumor activity of compounds was measured in mice bearing transplantable tumors. Survival or tumor size were measured and the results are expressed as the measurement made in the treated group (T) divided by the measurement made in the vehicle treated control group (C). The tumor model used in this assay is Lewis Lung Carcinoma (intravenous) in B6D2F1 (BDF1) mice

Setting [1] is: dose: 6.25 mg/kg/injection, schedule: Q01DX009 (ip), vehicle: saline.
Setting [2] is: dose: 12.5 mg/kg/injection, schedule: Q01DX009 (ip), vehicle: saline.
Where [3] appears, read: dose: 25.0 mg/kg/injection, schedule: Q01DX009 (ip), vehicle: saline.
Setting [4] is: dose: 50.0 mg/kg/injection, schedule: Q01DX009 (ip), vehicle: saline.
The mark [5] stands for this setting: dose: 100.0 mg/kg/injection, schedule: Q01DX009 (ip), vehicle: saline.
Where [6] appears, read: dose: 400.0 mg/kg/injection, schedule: Q01DX009 (ip), vehicle: saline.
Where [7] appears, read: dose: 6.25 mg/kg/injection, schedule: Q01DX009 (ip), vehicle: saline with Tween-80.
Where [8] appears, read: dose: 12.5 mg/kg/injection, schedule: Q01DX009 (ip), vehicle: saline with Tween-80.
Setting [9] is: dose: 25.0 mg/kg/injection, schedule: Q01DX009 (ip), vehicle: saline with Tween-80.
[10] abbreviates: dose: 200.0 mg/kg/injection, schedule: Q01DX009 (ip), vehicle: saline with Tween-80.
The mark [11] stands for this setting: dose: 50.0 mg/kg/injection, schedule: Q01DX009 (ip), vehicle: saline with Tween-80.
Setting [12] is: dose: 100.0 mg/kg/injection, schedule: Q01DX009 (ip), vehicle: saline with Tween-80.
The mark [13] stands for this setting: dose: 25.0 mg/kg/injection, schedule: Q01DX009 (ip), vehicle: Klucel (hydroxypropylcellulose) (HPC).
[14] abbreviates: dose: 50.0 mg/kg/injection, schedule: Q01DX009 (ip), vehicle: Klucel (hydroxypropylcellulose) (HPC).
The mark [15] stands for this setting: dose: 12.5 mg/kg/injection, schedule: Q01DX009 (ip), vehicle: Klucel (hydroxypropylcellulose) (HPC).

`CC(C)C1OC(=O)/C=C/C=C/C=C/C=C/C=C/CC(O)C(C)C(O)CC(O)CC(O)CC(O)CC(O)CC(O)CC(O)/C=C/C1C` (stereo unspecified): the T/C was 111 % of control under setting [1], 104 % of control under setting [2] and 111 % of control under setting [3].

Turning to `CCN(CC)CCOC(=O)Cc1cccc2c(=O)cc(-c3ccccc3)oc12`, the T/C was 109 % of control under setting [2], 105 % of control under setting [3], 105 % of control under setting [4] and 101 % of control under setting [5].

For `N=[N+]=CC(=O)OCC(N)C(=O)O` (stereo unspecified), the T/C reads like this: (dose: 0.78 mg/kg/injection, schedule: Q01DX009 (ip), vehicle: saline) 98 % of control; (dose: 1.56 mg/kg/injection, schedule: Q01DX009 (ip), vehicle: saline) 103 % of control; (dose: 3.12 mg/kg/injection, schedule: Q01DX009 (ip), vehicle: saline) 100 % of control; under setting [1], 104 % of control; under setting [2], 117 % of control.

Turning to `O=NN(CCCl)C(=O)NCCCl`, the T/C (dose: 1.5 mg/kg/injection, schedule: Q01DX009 (ip), vehicle: Klucel (hydroxypropylcellulose) (HPC)) is 122 % of control; the T/C (dose: 3.0 mg/kg/injection, schedule: Q01DX009 (ip), vehicle: Klucel (hydroxypropylcellulose) (HPC)) was 305 % of control; the T/C (dose: 6.0 mg/kg/injection, schedule: Q01DX009 (ip), vehicle: Klucel (hydroxypropylcellulose) (HPC)) was 163 % of control; the T/C (dose: 10.0 mg/kg/injection, schedule: Q01DX001 (ip), vehicle: saline + alcohol) is 116 % of control; the T/C (dose: 12.0 mg/kg/injection, schedule: Q01DX009 (ip), vehicle: Klucel (hydroxypropylcellulose) (HPC)) was 304 % of control; the T/C (dose: 20.0 mg/kg/injection, schedule: Q01DX001 (ip), vehicle: saline + alcohol) was 124 % of control. The T/C was 215 % of control (dose: 20.48 mg/kg/injection, schedule: Q01DX001 (iv), vehicle: saline + alcohol); 268 % of control (dose: 25.6 mg/kg/injection, schedule: Q01DX001 (iv), vehicle: saline + alcohol); 267 % of control (dose: 32.0 mg/kg/injection, schedule: Q01DX001 (iv), vehicle: saline + alcohol); 109 % of control (dose: 40.0 mg/kg/injection, schedule: Q01DX001 (ip), vehicle: saline + alcohol); 268 % of control (dose: 40.0 mg/kg/injection, schedule: Q01DX001 (iv), vehicle: saline + alcohol); 117 % of control (dose: 50.0 mg/kg/injection, schedule: Q01DX001 (ip), vehicle: saline + alcohol). Further, the T/C reads like this: (dose: 50.0 mg/kg/injection, schedule: Q01DX001 (iv), vehicle: saline + alcohol) 268 % of control; (dose: 62.5 mg/kg/injection, schedule: Q01DX001 (iv), vehicle: saline + alcohol) 268 % of control.

Turning to `OCC1(CO)COC2(CCCCC2)N1`, the T/C by setting is: under setting [2], 102 % of control; under setting [3], 100 % of control; under setting [4], 102 % of control; under setting [5], 100 % of control; (dose: 200.0 mg/kg/injection, schedule: Q01DX009 (ip), vehicle: saline) 101 % of control; under setting [6], 103 % of control.

As for `CC1(CO)C(O)CCC2(C)C1CCC1CC3CC12CCC3(O)CO` (stereo unspecified), the T/C reads like this: under setting [7], 87 % of control; under setting [8], 97 % of control; under setting [9], 110 % of control; under setting [10], 106 % of control.

Consider `OCC1OC(n2cnc3cc(Cl)c(Cl)cc32)C(O)C1O` (stereo unspecified), for which the T/C is, setting by setting: under setting [7], 96 % of control; under setting [8], 94 % of control; under setting [9], 110 % of control; under setting [11], 110 % of control; under setting [12], 100 % of control; under setting [10], 90 % of control.

Consider `NC(N)=NC(N)=Nc1ccc(-c2ccc(N=C(N)N=C(N)N)cc2)cc1`, for which the T/C was 110 % of control (dose: 0.78 mg/kg/injection, schedule: Q01DX009 (ip), vehicle: saline with Tween-80); 110 % of control (dose: 1.56 mg/kg/injection, schedule: Q01DX009 (ip), vehicle: saline with Tween-80); 99 % of control (dose: 3.13 mg/kg/injection, schedule: Q01DX009 (ip), vehicle: saline with Tween-80); 90 % of control under setting [7]; 113 % of control under setting [8].

As for `CC(=O)OC/C=C(C)/C=C/C=C(C)/C=C/C1=C(C)CCCC1(C)C`, the T/C was 115 % of control (dose: 6.25 mg/kg/injection, schedule: Q01DX005 (ip), vehicle: saline with Tween-80); 91 % of control (dose: 12.5 mg/kg/injection, schedule: Q01DX005 (ip), vehicle: saline with Tween-80); 97 % of control (dose: 25.0 mg/kg/injection, schedule: Q01DX005 (ip), vehicle: saline with Tween-80); 97 % of control (dose: 50.0 mg/kg/injection, schedule: Q01DX005 (ip), vehicle: saline with Tween-80); 98 % of control (dose: 100.0 mg/kg/injection, schedule: Q01DX005 (ip), vehicle: saline with Tween-80); 104 % of control (dose: 200.0 mg/kg/injection, schedule: Q01DX005 (ip), vehicle: saline with Tween-80).

As to `Cc1cc(N(CC(C)Br)CC(C)Br)ccc1N=Nc1ccccc1C(=O)O` (stereo unspecified), the T/C was 117 % of control under setting [7] and 114 % of control under setting [8].

`CCOC(=O)NC(N)=O`: the T/C was 97 % of control under setting [11]; 100 % of control under setting [12]; 122 % of control under setting [10]; 107 % of control (dose: 400.0 mg/kg/injection, schedule: Q01DX009 (ip), vehicle: saline with Tween-80).

As for `COc1ccc(CCNC(C)=O)cc1OC`, the T/C under setting [13] was 90 % of control; the T/C under setting [14] is 94 % of control; the T/C (dose: 100.0 mg/kg/injection, schedule: Q01DX009 (ip), vehicle: Klucel (hydroxypropylcellulose) (HPC)) was 103 % of control; the T/C (dose: 200.0 mg/kg/injection, schedule: Q01DX009 (ip), vehicle: Klucel (hydroxypropylcellulose) (HPC)) is 105 % of control.

Turning to `[N-]=[N+]=C1N=CN=C1c1ncn[nH]1`, the T/C reads like this: (dose: 3.12 mg/kg/injection, schedule: Q01DX009 (ip), vehicle: Klucel (hydroxypropylcellulose) (HPC)) 98 % of control; (dose: 6.25 mg/kg/injection, schedule: Q01DX009 (ip), vehicle: Klucel (hydroxypropylcellulose) (HPC)) 100 % of control; under setting [15], 95 % of control; under setting [13], 120 % of control; under setting [14], 97 % of control.

For `NC(Cc1ccc(N(CCCl)CCCl)cc1)C(=O)O` (stereo unspecified), the T/C reads like this: (dose: 0.5 mg/kg/injection, schedule: Q01DX009 (ip), vehicle: Klucel (hydroxypropylcellulose) (HPC)) 94 % of control; (dose: 1.0 mg/kg/injection, schedule: Q01DX009 (ip), vehicle: Klucel (hydroxypropylcellulose) (HPC)) 97 % of control; (dose: 2.0 mg/kg/injection, schedule: Q01DX009 (ip), vehicle: Klucel (hydroxypropylcellulose) (HPC)) 122 % of control.

In the case of `c1cn[nH]c1`, the T/C is, setting by setting: under setting [3], 121 % of control; under setting [4], 110 % of control.

On to `N=C(N)SCc1cccc2c(=O)cc(-c3ccccc3)oc12`, for which the T/C is 107 % of control under setting [15]; 104 % of control under setting [13]; 106 % of control under setting [3]; 107 % of control under setting [14]; 94 % of control under setting [4]; 100 % of control under setting [5]. For the same molecule, under setting [6], the T/C is 89 % of control.

For the molecule `Nc1nc(=S)c2[nH]cnc2[nH]1`, the T/C is 105 % of control (dose: 0.25 mg/kg/injection, schedule: Q01DX009 (ip), vehicle: saline); 114 % of control (dose: 0.5 mg/kg/injection, schedule: Q01DX009 (ip), vehicle: saline); 107 % of control (dose: 1.0 mg/kg/injection, schedule: Q01DX009 (ip), vehicle: saline); 92 % of control (dose: 2.0 mg/kg/injection, schedule: Q01DX009 (ip), vehicle: saline).

Regarding `CCCCCc1cc(O)c2c(c1)OC(C)(C)[C@@H]1CCC(C)=C[C@@H]21`, the T/C runs as follows: (dose: 200.0 mg/kg/injection, schedule: Q01DX009 (ip), vehicle: other) 89 % of control; (dose: 800.0 mg/kg/injection, schedule: Q01DX009 (ip), vehicle: other) 88 % of control.
